Literature values in patent US20080102137A1, “Composition and method for etiological treatment and prevention of diseases and/or complications associated with chronic glucose metabolism destabilization” (priority 2006, published 2008).

Key:
[1] = patients with panic disorders
blood platelet = blood platelet assay
fat cells = details: test tube assay of fat cells
[2] = 600 mg synthetic α-tocopherol daily for 14 days, diabetic individuals

## O[C@H]1[C@H](O)[C@@H](O)[C@H](O)[C@@H](O)[C@H]1O [inositol]
[1]
  frequency and severity of panic attacks: reduction in the frequency and severity of panic attacks

## methylhydroxy chalcone polymer [MHCP]
Blood platelet
  formation of damaging oxygen radicals: prevented the formation of damaging oxygen radicals
Fat cells
  increased glucose metabolism: roughly 20 fold

## Cc1c(C)c2c(c(C)c1O)CC[C@@](C)(CCC[C@H](C)CCC[C@H](C)CCCC(C)C)O2 [α-tocopherol]
[2]
  biochemical marker of oxidative stress: reduction in the oxidative stress marker

## CN(C)C(=N)N=C(N)N [Metformin]
average
  lowers fasting blood glucose levels: 25%
Cases of metabolic syndrome
  reduces raised plasma insulin levels: ≤ 30%
In vivo
  lowers postprandial blood glucose: up to 44.5%
